Assay results taken from patent US20080145358A1, “Method for Determining Responsiveness to Chk1 Inhibitors” (ASTRAZENECA AB, priority 2005, published 2008).

Assays:
phospho-CHK [1] = experiment: Western blot of phospho-CHK after DNA damaging agents in SW620 and or HT29 cells; assay type: cell-based; details: titration of DNA damaging agent, 8 hour incubation
Protocol: Cell were then treated with a titration of DNA damaging agents (SN-38 (CQ International, China), doxorubicin (Sigma-Aldrich, MO) or gemcitabine (CQ International, China)). Cells were then harvested after an 8 hour incubation with DNA damaging agents in Onyx lysis buffer with protease and phosphatase inhibitors (20 mM Tris, 137 mM Na Cl, […], 1% Triton X, 10% glycerol, 1.5 mM MgCl2, 1:100 dilution of Calbiochem Phophatase Inhibitor Cocktail set II, 10 mM β-glycerophosphate, 1 mM DTT, 7 μg/ml PMSF, 20KIU/ml aprotinin, 1 mM Pefabloc, 0.1 mg/ml leupeptin). Protein lysates were then generated, protein concentration determined and equal protein loaded and analyzed by Western blot analysis using a 1:100 dilution of phospho-CHK rabbit monoclonal antibody (Ser 345) (133D3) acquired from Cell Signaling (Beverly, Mass.). […] To further characterize the CHK1 activation, SW620 and HT29 cells were treated with gemcitabine (100 nM) or SN38 (100 nM) and cells harvested at different times (from 30 minutes to 24 hours). […] A panel of tumor cell lines was then examined to determine how broadly in tumor cells CHK was activated and whether p53 status impacted CHK activation. The panel of cell lines were plated and treated for 8 hours with 100 nM of gemcitabine. Cell lysates were harvested and evaluated for phospho-CHK upregulation.

phospho-H2AX = experiment: Western blot of phospho-H2AX in SW620 and or A549 cells; assay type: cell-based; details: 5 hour incubation, either compound used alone
Protocol: Cells were then harvested after a 5 hour incubation directly into SDS sample buffer (NuPAGE #NP007). Samples were then sonicated, passed through a 21 gauge needle, heated to 100° C. for 5 minutes, microcentrifuged and analyzed by Western blot analysis. Protein lysates were then generated, protein concentration determined and equal protein loaded and analyzed by Western blot analysis using a 1:5000 dilution of a mouse monoclonal anti-phospho H2AX […] (Upstate, N.Y.).

phospho-CHK [2] = experiment: Western blot of phospho-CHK in H460 (dominant negative p53) xenograft tumors; assay type: in vivo, nude rats; details: 20 mg/kg IV
Protocol: 1×10^7 H460 cells expressing dominant negative p53 were injected into the right flank of male nude rats which had been irradiated with 5 Gy radiation 6 days prior to implantation. At day 20 when the tumors reached a size of […], animals were dosed IV with 20 mg/kg gemcitabine in 0.9% saline. Tumors were then harvested at varying time points including 1.5, 2, 2.5, 4, 6, 8 and 24 hours following gemcitabine dosing.

phospho-CHK [3] = experiment: Phospho-CHK immunohistochemistry (IHC) in HeLa or A549 cells, Metamorph quantitation; assay type: cell-based; details: 100 nM gemcitabine, 5 hours, FIG. 1
Protocol: Phospho-CHK regulation was also examined by immunohistochemistry (IHC). […] Cells were fixed with 4% PFA in PBS (8 minutes room temperature), permeabilized with 0.5% Triton-X in PBS, washed with PBS and washed with 0.05% Tween 20 in PBS. Cells were then blocked with 10% Goat serum for 1 hour at room temperature, incubated with 1:50 dilution of phospho-CHK rabbit monoclonal antibody ([MUT]) (133D3) acquired from Cell Signaling (Beverly, Mass.) in 10% goat serum for 90 minutes, washed twice with PBS and once with 05% Tween 20 in PBS. […] Phospho-CHK staining was then quantitated using Metamorph analysis (Universal Imaging Corp, Dowington, Pa.).

phospho-CHK [4] = experiment: Western blot of phospho-CHK in SW620 cells, gemcitabine and CHK inhibitor combination; assay type: cell-based; details: 8 hours, 100 nM gemcitabine alone or 30, 100 or 500 nM CHK inhibitor alone
Protocol: Cell were then treated with 100 nM gemcitabine or 30 nM, 100 nM or 500 nM CHK inhibitor or a combination of 100 nM gemcitabine and 30 nM, 100 nM or 500 nM for 8 hours. One set of cells were then harvested for Western blot analysis. Media containing compounds were removed from the remaining cells and fresh tissue culture media added back.

phosphorylated CHK1 = experiment: Phosphorylated CHK1 staining (H-score) of hair follicles in skin biopsies; assay type: in vivo, nude mice; details: gemcitabine 30 or 60 mg/kg IV alone or Chk inhibitor 5, 20 or 40 mg/kg IV alone, seven hours
Text: Staining was specific to cell nuclei. […] Sections were then quantitated by H-score analysis.

phospho-CHK [5] = experiment: Western blot of phospho-CHK in a panel of tumor cell lines; assay type: cell-based; details: 100 nM, 8 hours
Protocol: Cell were then treated with a titration of DNA damaging agents (SN-38 (CQ International, China), doxorubicin (Sigma-Aldrich, MO) or gemcitabine (CQ International, China)). […] Protein lysates were then generated, protein concentration determined and equal protein loaded and analyzed by Western blot analysis using a 1:100 dilution of phospho-CHK rabbit monoclonal antibody ([MUT]) (133D3) acquired from Cell Signaling (Beverly, Mass.). […] A panel of tumor cell lines was then examined to determine how broadly in tumor cells CHK was activated and whether p53 status impacted CHK activation. The panel of cell lines were plated and treated for 8 hours with 100 nM of gemcitabine. Cell lysates were harvested and evaluated for phospho-CHK upregulation.

## CCc1c2c(nc3ccc(O)cc13)-c1cc3c(c(=O)n1C2)COC(=O)[C@]3(O)CC [SN-38]
phospho-CHK [1]
  phospho-CHK level by Western blot: dose dependent up-regulation

## COc1cccc2c1C(=O)c1c(O)c3c(c(O)c1C2=O)C[C@@](O)(C(=O)CO)C[C@@H]3O[C@H]1C[C@H](N)[C@H](O)[C@H](C)O1 [doxorubicin]
phospho-CHK [1]
  phospho-CHK level by Western blot: dose dependent up-regulation

## Nc1ccn([C@@H]2O[C@H](CO)[C@@H](O)C2(F)F)c(=O)n1 [gemcitabine]
phospho-H2AX
  phospho-H2AX by Western blot, compound alone: no change or a very modest change
phospho-CHK [2]
  time of maximum activation of CHK in tumor: 8 h
  time to activation of CHK in tumor: ≤ 2 h
phospho-CHK [2]; 24 hours after dosing
  phospho-CHK in tumor at 24 hours: significantly down-regulated
phospho-CHK [3]
  area of phospho-CHK signal relative to nuclear area: large increase
phospho-CHK [4]
  phospho-CHK level by Western blot, single agent: increase in phospho-CHK
phospho-CHK [1]
  phospho-CHK level by Western blot: dose dependent up-regulation
Phosphorylated CHK1
  phosphorylated CHK1 staining of hair follicles, single agent: No staining
phospho-CHK [5]
  phospho-CHK level by Western blot: upregulated in a panel of tumor cell lines, albeit to different levels
